Results: PubChem BioAssay (NCI)
“And” between values parts separate entries of the source, which are not always exact repeats. Equal values may be shown once.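 Exposure lasted 48 hours, with cells grown in 96-well plates and compounds tested at five concentrations. GI50 = concentration required for 50% inhibition of growth. TGI: total growth inhibition.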

What was measured:
Assay in all cases: NCI tumour cell line growth inhibition, 48 h
HOP-92 NSCLC = system: HOP-92 NSCLC
OVCAR-3 ovarian = system: OVCAR-3 ovarian
786-0 renal = system: 786-0 renal
CCRF-CEM leukemia = system: CCRF-CEM leukemia
SR leukemia = system: SR leukemia
RXF 393 renal = system: RXF 393 renal
TK-10 renal = system: TK-10 renal
M14 melanoma = system: M14 melanoma
SNB-75 CNS = system: SNB-75 CNS
UO-31 renal = system: UO-31 renal

SMILES	TGI (HOP-92 NSCLC)	TGI (OVCAR-3 ovarian)	TGI (786-0 renal)	TGI (CCRF-CEM leukemia)	TGI (SR leukemia)	TGI (RXF 393 renal)	TGI (TK-10 renal)	TGI (M14 melanoma)	TGI (SNB-75 CNS)	GI50 (HOP-92 NSCLC)	GI50 (OVCAR-3 ovarian)	GI50 (786-0 renal)	GI50 (UO-31 renal)	TGI (UO-31 renal)	GI50 (CCRF-CEM leukemia)	GI50 (SR leukemia)	GI50 (RXF 393 renal)	GI50 (M14 melanoma)	GI50 (SNB-75 CNS)	GI50 (TK-10 renal)
Cc1coc2c1CC1(C)C(CCC(O)C1C)C2 (stereo unspecified)	> 100 µM	> 100 µM	> 100 µM	> 100 µM	> 100 µM	> 100 µM	> 100 µM	> 100 µM	> 100 µM	–	–	–	–	–	–	–	–	–	–	–
COC1CCC(N2C(=O)CNc3ncc(-c4ccc(C(C)(C)O)nc4)nc32)CC1 (stereo unspecified)	0.934 µM and 0.389 µM	> 33 µM	> 32.1 µM	> 100 µM	> 47.2 µM	3.66 µM and 2.32 µM	5.58 µM and 1.86 µM	> 6.95 µM and 11.8 µM	3.54 µM and 1.6 µM	0.129 µM and 0.0247 µM	0.904 µM and 0.248 µM	0.962 µM and 0.243 µM	0.199 µM and 0.0768 µM	3.08 µM and 10.5 µM	1.41 µM and 0.738 µM	1.06 µM and 0.331 µM	0.373 µM and 0.187 µM	0.614 µM and 0.134 µM	0.281 µM and 0.0543 µM	–
O=CN/C=C/c1cc(O)ccc1O	25.6 µM	22.5 µM	27.1 µM	23.9 µM	48.2 µM	26.3 µM	31.6 µM	32.8 µM	98.2 µM	–	–	–	–	46.3 µM	–	–	–	–	–	–
Cc1ccc(C(=O)/C(=C/c2ccc([N+](=O)[O-])cc2)SCc2ccc(Cl)cc2)cc1	55.2 µM	3.54 µM	3.58 µM	> 100 µM	> 100 µM	7.03 µM	30.7 µM	19.4 µM	> 100 µM	2.86 µM	1.72 µM	1.66 µM	1.2 µM	2.66 µM	0.283 µM	0.325 µM	2.38 µM	2.52 µM	20.4 µM	4.95 µM
O=C1CC(c2ccc3c(c2)OCO3)Nc2ccccc21 (stereo unspecified)	32.3 µM	21.3 µM	40.2 µM	> 100 µM	> 100 µM	28.3 µM	99.4 µM	30.5 µM	18.5 µM	4.96 µM	5.01 µM	8.11 µM	5.9 µM	19.4 µM	3.85 µM	4.56 µM	11.7 µM	14 µM	4.04 µM	25.7 µM
CSc1nc2c(c(=O)[nH]1)N=C1c3ccccc3C(=O)C1C(c1ccccc1)N2 (stereo unspecified)	> 100 µM	5.67 µM	> 100 µM	> 100 µM	> 100 µM	> 100 µM	> 100 µM	> 100 µM	8.78 µM	12 µM	2.12 µM	6.44 µM	5.23 µM	> 100 µM	6.92 µM	1.51 µM	22 µM	3.29 µM	1.27 µM	73.6 µM
COc1cc(-c2nn(-c3ccc(NC(=O)c4ccc(Cl)c(C(F)(F)F)c4)cc3)cc2-c2ccncc2)ccc1Cl	8.81 µM	> 30.9 µM	2.86 µM	> 100 µM	> 37.8 µM	1.61 µM	> 100 µM	8.26 µM	6.83 µM	2.58 µM	2.98 µM	1.2 µM	1.65 µM	5.46 µM	2.5 µM	3.2 µM	0.461 µM	2.51 µM	1.23 µM	4.56 µM
OCc1ccc(N2CCC2c2ccc(F)cc2)cc1Cl (stereo unspecified)	25.1 µM	13.8 µM	> 61.5 µM	> 82.9 µM	54.8 µM	30.4 µM	1.61 µM	> 79.4 µM	> 100 µM	3.14 µM	2.34 µM	22.6 µM	20.8 µM	76.3 µM	26 µM	22.6 µM	11.6 µM	32.7 µM	20.6 µM	0.225 µM
O=C(Nc1ccccc1OC(F)(F)F)Nc1n[nH]c2ccccc12	83.2 µM	> 100 µM	> 100 µM	–	24 µM	> 100 µM	> 100 µM	> 100 µM	49.8 µM	12.9 µM	90.8 µM	38.7 µM	17.4 µM	> 100 µM	–	0.0489 µM	24.4 µM	25.5 µM	17.5 µM	37.9 µM
CCCCCN(CCCCC)CC(O)c1cc(C)c2ccc3cc(C(C)C)ccc3c2c1 (stereo unspecified)	2.85 µM	3.41 µM	3.41 µM	5.53 µM	3.17 µM	3.1 µM	3.51 µM	3.7 µM	2.65 µM	1.4 µM	1.92 µM	1.79 µM	1.48 µM	2.99 µM	2.19 µM	0.836 µM	1.57 µM	1.77 µM	1.31 µM	1.89 µM
CC1=C(C(=O)Nc2ccc(Cl)c(Cl)c2)C(c2cccc(Oc3ccccc3)c2)NC(=S)N1 (stereo unspecified)	31.2 µM	8.15 µM	17.4 µM	–	> 50 µM	22.1 µM	19.7 µM	20.1 µM	18.4 µM	13.3 µM	1.87 µM	8.29 µM	7.63 µM	17.6 µM	–	44.9 µM	7.33 µM	9.21 µM	8.26 µM	11.3 µM
COC1=CC(c2ccc[nH]2)=N/C1=C\c1[nH]c(C)c(C(=O)OC(C)C)c1C	0.0815 µM	0.586 µM	1.03 µM	> 100 µM	0.291 µM	1.03 µM	2.49 µM	1.23 µM	1.96 µM	0.0239 µM	0.05 µM	0.0476 µM	0.0494 µM	0.175 µM	0.0316 µM	0.0257 µM	0.0584 µM	0.034 µM	0.0805 µM	0.0541 µM
c1ccc2cc(-c3cc(-c4cc(-c5ccc6ccccc6c5)on4)no3)ccc2c1	> 100 µM	> 100 µM	> 100 µM	> 100 µM	> 100 µM	> 100 µM	> 100 µM	> 100 µM	> 100 µM	–	–	–	–	> 100 µM	–	–	–	–	–	–
CCOC(=O)[C@]1(OC(C)=O)C[C@H](OC(C)=O)[C@@H](C(F)COP(=O)(OCc2ccccc2)OCc2ccccc2)O1 (stereo partly specified)	34.5 µM	79.4 µM and > 100 µM	> 100 µM	> 100 µM	> 100 µM	68.2 µM and > 100 µM	35.7 µM and > 100 µM	> 100 µM	> 100 µM	–	29.6 µM and > 100 µM	39 µM and > 100 µM	21.6 µM and > 100 µM	43.5 µM and > 100 µM	–	30.2 µM and > 100 µM	24.5 µM and > 100 µM	49.4 µM and > 100 µM	–	18.8 µM and > 100 µM
